Source: PubChem BioAssay (NCI)
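Five concentrations, 48 hours, 96-well plates. The concentration for 50% growth inhibition is given as GI50. TGI denotes the concentration required for complete inhibition of growth.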

Tests used:
Test in all cases: NCI-60 cell line screen, 48 h
NCI-H460 lung = system: NCI-H460 lung
NCI-H522 lung = system: NCI-H522 lung
NCI/ADR-RES ovarian = system: NCI/ADR-RES ovarian
OVCAR-3 ovarian = system: OVCAR-3 ovarian
OVCAR-4 ovarian = system: OVCAR-4 ovarian
OVCAR-5 ovarian = system: OVCAR-5 ovarian
OVCAR-8 ovarian = system: OVCAR-8 ovarian
PC-3 prostate = system: PC-3 prostate
RPMI-8226 leukemia = system: RPMI-8226 leukemia
RXF 393 renal = system: RXF 393 renal
SF-268 CNS = system: SF-268 CNS
SF-295 CNS = system: SF-295 CNS
SF-539 CNS = system: SF-539 CNS
SK-MEL-2 melanoma = system: SK-MEL-2 melanoma
SK-MEL-28 melanoma = system: SK-MEL-28 melanoma
SK-MEL-5 melanoma = system: SK-MEL-5 melanoma
SK-OV-3 ovarian = system: SK-OV-3 ovarian
SN12C renal = system: SN12C renal
SNB-19 CNS = system: SNB-19 CNS
SNB-75 CNS = system: SNB-75 CNS
SR leukemia = system: SR leukemia
SW-620 colon = system: SW-620 colon
T-47D breast = system: T-47D breast
TK-10 renal = system: TK-10 renal
U251 CNS = system: U251 CNS
UACC-257 melanoma = system: UACC-257 melanoma
UACC-62 melanoma = system: UACC-62 melanoma
UO-31 renal = system: UO-31 renal

`N#Cc1cnc(Nc2cc(NC[C@H]3CNCCO3)c(C(F)(F)F)cn2)cn1` gave a GI50 (NCI-H460 lung) of 13.4 µM, a TGI (NCI-H460 lung) of 38.3 µM and a GI50 (NCI-H522 lung) of 13.1 µM. For the same compound, the TGI (NCI-H522 lung) was 34.9 µM, the GI50 (NCI/ADR-RES ovarian) was 1.73 µM and the TGI (NCI/ADR-RES ovarian) was 84.5 µM. The GI50 (OVCAR-3 ovarian) was 13.3 µM, the TGI (OVCAR-3 ovarian) was 48.3 µM and the GI50 (OVCAR-4 ovarian) was 10.5 µM. For the same compound, the TGI (OVCAR-4 ovarian) was 82.7 µM, the GI50 (OVCAR-5 ovarian) was 9.37 µM and the TGI (OVCAR-5 ovarian) was 67.1 µM. It also gave a GI50 (OVCAR-8 ovarian) of 3.69 µM, a TGI (OVCAR-8 ovarian) of 93 µM and a GI50 (PC-3 prostate) of 21.1 µM. The TGI (PC-3 prostate) was 87.5 µM, the GI50 (RPMI-8226 leukemia) was 15.7 µM and the TGI (RPMI-8226 leukemia) was 56.3 µM. For the same compound, the GI50 (RXF 393 renal) was 0.858 µM, the TGI (RXF 393 renal) was 18.2 µM and the GI50 (SF-268 CNS) was 16.2 µM. For the same compound, the TGI (SF-268 CNS) was 47.5 µM, the GI50 (SF-295 CNS) was 0.525 µM and the TGI (SF-295 CNS) was > 100 µM. The GI50 (SF-539 CNS) was 0.669 µM, the TGI (SF-539 CNS) was 17.3 µM and the GI50 (SK-MEL-2 melanoma) was 12.6 µM. It also gave a TGI (SK-MEL-2 melanoma) of 34.7 µM, a GI50 (SK-MEL-28 melanoma) of 16.3 µM and a TGI (SK-MEL-28 melanoma) of 46.5 µM. For the same compound, the GI50 (SK-MEL-5 melanoma) was 9.3 µM, the TGI (SK-MEL-5 melanoma) was 21.6 µM and the GI50 (SK-OV-3 ovarian) was 3.62 µM. For the same compound, the TGI (SK-OV-3 ovarian) was 38.9 µM, the GI50 (SN12C renal) was 17.7 µM and the TGI (SN12C renal) was 83 µM. The GI50 (SNB-19 CNS) was 9.67 µM, the TGI (SNB-19 CNS) was > 100 µM and the GI50 (SNB-75 CNS) was 11.5 µM. For the same compound, the TGI (SNB-75 CNS) was 28.1 µM, the GI50 (SR leukemia) was 0.64 µM and the TGI (SR leukemia) was 24 µM. For the same compound, the GI50 (SW-620 colon) was 18.1 µM, the TGI (SW-620 colon) was 73.8 µM and the GI50 (T-47D breast) was 16.6 µM. For the same compound, the TGI (T-47D breast) was 51.5 µM, the GI50 (TK-10 renal) was 3.66 µM and the TGI (TK-10 renal) was 36 µM. It also gave a GI50 (U251 CNS) of 21.8 µM, a TGI (U251 CNS) of 73 µM and a GI50 (UACC-257 melanoma) of 19.3 µM. The TGI (UACC-257 melanoma) was 45.8 µM, the GI50 (UACC-62 melanoma) was 5.17 µM and the TGI (UACC-62 melanoma) was 25.1 µM. For the same compound, the GI50 (UO-31 renal) was 5.49 µM and the TGI (UO-31 renal) was 69.2 µM.
